{"source": "paper PMC12957798", "about": "“Adaptation of plateau frog peptide: From antimicrobial to angiogenic and proliferative functions” (Journal of Advanced Research, 2025)", "key": {"[1]": {"system": "TGF-β1 mRNA", "assay": "qPCR TGF-β1 mRNA in HaCaT", "assay_type": "cell-based, Human", "conditions": "SC17-2, HaCaT", "description": "HaCaT cells were treated as above, washed twice with PBS and lysed using Trizol for 5 min, after which 200 μL of chloroform was added and shaken vigorously for 30 s. The cells were centrifuged for 15 min to separate the upper and lower layers (12,500 g, 4 °C). The supernatant was vortexed with an equal amount of isopropanol and left to stand for 10 min, and then centrifuged again under the same conditions to retain only the white precipitate. 500 μL of 75 % ethanol was added and centrifuged (12000 rpm, 4 °C, 10 min) and the operation was repeated twice. Afterwards, DEPC was used for dissolution and the concentration was determined by nanodrop. One-step reverse transcription to DNA was performed using 5 × MIX, after which primers and 2 × MIX were added and placed. qPCR was performed (LightCycler96, F. Hoffmann-La Roche, Swiss)."}, "[2]": {"system": "Acinetobacter baumannii (ATCC 19606), Candida auris (ATCC 10231), Pseudomonas aeruginosa (ATCC 27853) and Staphylococcus aureus (ATCC 6538)", "assay": "Disk diffusion (paper-disc agar-diffusion) antimicrobial test", "assay_type": "cell-based", "conditions": "SC17-2 10 mg/mL, 1 mL on filter paper, 24 h, 37 °C, b51 statement also rests on the MIC test", "description": "Disk diffusion and broth microdilution tests were selected as the standard method for screening the antimicrobial activity of SC17-2 [58]. The experiments were conducted utilising the disk diffusion test, whereby the following strains were examined: Acinetobacter baumannii (ATCC 19606), Candida auris (ATCC 10231), Pseudomonas aeruginosa (ATCC 27853) and Staphylococcus aureus (ATCC 6538). The concentration of bacterial suspension was then adjusted to 1 × 10^5 CFU/mL with saline, after which it was set aside. Separate plates containing bacterial agar were prepared: MH agar was utilised for the isolation of bacterial samples, while Sartorius agar was employed for the isolation of fungal samples. The suspensions containing the aforementioned microorganisms were then spread on the designated plates at a rate of 1:1000. A sterile filter paper was used to dispense 1 mL of SC17-2 (10 mg/mL), with equal amounts of PBS and Vancomycin/Colistin serving as controls. The plates were then subjected to the appropriate temperature (24 h at 37 °C) and subsequently observed under a camera to ascertain the results."}, "[3]": {"system": "CD31", "assay": "CD31 immunofluorescence of mouse wound sections (angiogenesis)", "assay_type": "in vivo", "conditions": "13 days", "description": "Use scissors to remove the tissue around the wound, put the tissue into 4 % paraformaldehyde solution, put the tissue in 4 °C for 24 h, use a tissue embedding machine for embedding, use a rotary slicer to section the tissue, put the section into environmentally friendly dewaxing solution to dewax for 3 times, 10 min each time, then use anhydrous ethanol to treat the section for 3 times, 5 min each time, rinse with distilled water and then repair the section by EDTA antigen repair solution. The slides were then incubated overnight at 4 °C with Anti-CD31 Mouse mAb as primary antibody and at room temperature for 50 min, protected from light, in PBS (pH 7.4), shaken and washed 3 times for 5 min each time on a decolourising shaker. Incubate at room temperature for 10 min. Images were captured using a scanner (Pannoramic MIDI), and graphics were processed using imageJ. The results were calculated as follows: relative staining area of blood vessels = An/average (Ac), An indicates the fluorescence staining area of CD31 obtained from the current sample by ImageJ statistics, […], and Ac is the fluorescence staining area of CD31 of all control samples.\nImageJ was used to quantify the percentage of stained area for Masson and the percentage of fluorescent area for CD31. All data were analysed by GraphPad Prism 9.5 software. Data were expressed as mean ± SEM. Comparisons between multiple groups were performed by using one-way analysis of variance (ANOVA) and Tukey's multiple comparison test. Differences between groups were commonly tested by ANOVA, P < 0.05 was considered statistically significant."}, "[4]": {"target": "T1, EGFR (Homo sapiens, UniProt P00533)", "assay": "Bio-Layer Interferometry (BLI)", "assay_type": "binding", "description": "Prepare 20 μg/mL of EGFR protein solution (solvent 0.1 % PBS-Tween), and different concentrations of SC17-2 (5, 10, 20 μg/mL) dissolved using PBST. Biotin was added and incubated at room temperature for 30 min according to the instructions, and the corresponding probes were soaked in PBST for 10 min. The assay was carried out according to the BLI predefined procedure (Octet K2, ForteBio, USA), followed by calculations using the accompanying software, and graphpad was used for graphing."}, "[5]": {"system": "HUVEC cells", "assay": "In vitro wound healing (migration) assay, HUVEC", "assay_type": "cell-based, Human", "conditions": "SC17-2 concentrations exceeding 10 μg/mL, 16 h"}, "[6]": {"system": "HSF cells", "assay": "In vitro wound healing (migration) assay, HSF", "assay_type": "cell-based, Human", "conditions": "SC17-2 concentrations exceeding 10 μg/mL, 16 h"}, "[7]": {"target": "T1, EGFR", "assay": "Surface plasmon resonance (SPR)", "assay_type": "binding", "description": "The analysis of biomolecular interactions was conducted utilising a Biacore S200 biosensor system (S200, Biacore, China). Briefly, the EGFR (20 μg/mL) was immobilised by amine coupling on the surface of a CM5 sensor chip (29104988, Cytiva, China) with a resonance unit (RU) of approximately 2000, using a sodium acetate buffer (10 mM, pH 4) as the immobilisation solution. In order to assess the affinity of SC17-2 for the epidermal EGFR, SC17-2 was injected at a flow rate of 30 μL/min onto a chip containing immobilised EGFR. The injection of SC17-2 was carried out at a flow rate of 30 μL/min at concentrations ranging from 5 to 500 μg/mL. The RU were recorded. The binding dissociation constants (KD) were determined using BiacoreTM Insight software."}, "[8]": {"system": "Transgenic zebrafish Tg (Fli1a:eGFP)", "assay": "Zebrafish VRI-induced vascular insufficiency model (ISV)", "assay_type": "in vivo", "conditions": "VRI 300 ng/mL", "description": "Transgenic zebrafish Tg (Fli1a:eGFP) were cultured in culture tanks at 28 °C in a 14 h:10 h light/dark cycle for up to 6 months and subsequently made to produce zygotes by mating only, zebrafish larvae at 24 h post fertilisation (hpf) were induced for 3 h with a VEGFR tyrosine kinase inhibitor II (VRI) to produce a model of vascular insufficiency, after which they were washed to abort the effect of VRI was added to the same number of zebrafish of different groups with SC17-2 or equivalent amount of PBS, and images of zebrafish embryos were captured by Leica fluorescence microscopy, and the ISV index was calculated as follows: ISV index = intact blood vessels × 1 + defective blood vessels × 0.5."}}, "note": "“Also recorded” adds a separate entry of the source.", "data": [{"sequence": "SFMPLSIPIMCKMLSKC [SC17-2, peptide of the pleskein family from the skin transcriptome of the frog Nanorana parkeri, made by solid-phase synthesis]", "values": [{"measurement": "TGF-β1 expression (qPCR)", "setting": "[1]", "value": "simultaneous increase"}, {"measurement": "antimicrobial (bacteriostatic) activity", "setting": "[2]", "value": "no bacteriostatic activity; also recorded: does not appear to have antimicrobial activity"}, {"measurement": "number of blood vessels in wounds, dose dependence", "setting": "[3]; CD31 images", "value": "number of blood vessels in the wounds increased with the increase of SC17-2 concentration"}, {"measurement": "blood vessel formation (CD31 staining)", "setting": "[3]; SC17-2 5 μg/mL, n = 9", "value": "promoted blood vessel formation"}, {"measurement": "proangiogenic effect compared with VEGF (CD31 staining)", "setting": "[3]; SC17-2 10 and 20 μg/mL, n = 9", "value": "more pronounced than that of VEGF"}, {"measurement": "EGFR binding, dose dependence", "setting": "[4]", "value": "binds in a dose-dependent manner"}, {"measurement": "HUVEC migration", "setting": "[5]", "value": "notable enhancement"}, {"measurement": "HSF migration", "setting": "[6]", "value": "notable enhancement"}, {"measurement": "EGFR binding, dose dependence", "setting": "[7]", "value": "binds in a dose-dependent manner"}, {"measurement": "ISVs restored, relative to healthy zebrafish", "setting": "[8]; SC17-2 20 μg/mL, 24 h, n = 6", "value": 84.18, "unit": "%"}, {"measurement": "number of ISV, dose dependence", "setting": "[8]; SC17-2 5, 10, 20 μg/mL, 24 h post-treatment", "value": "significant increase in the number of ISV in a dose-dependent manner"}]}]}
